{
  "source": "patent US10647713B2",
  "about": "(Nimbus Lakshmi, Inc., priority 2016, dated 2020)",
  "data": [
    {"target": "human TYK2 (JH2domain-pseudokinase) (Homo sapiens (Human), UniProt P29597)", "sequence (P29597 556-888)": "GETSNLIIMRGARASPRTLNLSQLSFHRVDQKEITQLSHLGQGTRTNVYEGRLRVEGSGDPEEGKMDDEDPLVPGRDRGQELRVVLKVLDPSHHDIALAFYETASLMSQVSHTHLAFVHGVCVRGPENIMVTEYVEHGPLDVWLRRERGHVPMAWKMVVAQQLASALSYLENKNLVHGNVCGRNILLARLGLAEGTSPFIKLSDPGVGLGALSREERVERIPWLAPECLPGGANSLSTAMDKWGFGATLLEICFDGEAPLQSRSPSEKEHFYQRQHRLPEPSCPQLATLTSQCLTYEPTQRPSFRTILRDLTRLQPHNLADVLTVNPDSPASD", "experiment": "TYK2 JH2 Domain Binding Assay (KINOMEscan, DiscoveRx)", "details": "11-point dilution, duplicate", "experimental": "Binding constants for compounds of the present invention against the JH2 domain were determined by the following protocol for a KINOMEscan® assay (DiscoveRx). A fusion protein of a partial length construct of human TYK2 (JH2domain-pseudokinase) (amino acids G556 to D888 based on reference sequence NP_003322.3) and the DNA binding domain of NFkB was expressed in transiently transfected HEK293 cells. From these HEK 293 cells, extracts were prepared in M-PER extraction buffer (Pierce) in the presence of Protease Inhibitor Cocktail Complete (Roche) and Phosphatase Inhibitor Cocktail Set II (Merck) per manufacturers' instructions. The TYK2 (JH2domain-pseudokinase) fusion protein was labeled with a chimeric double-stranded DNA tag containing the NFkB binding site (5′-GGGAATTCCC-3′) fused to an amplicon for qPCR readout, which was added directly to the expression extract (the final concentration of DNA-tag in the binding reaction is 0.1 nM).\nStreptavidin-coated magnetic beads (Dynal M280) were treated with a biotinylated small molecule ligand for 30 minutes at room temperature to generate affinity resins the binding assays. The liganded beads were blocked with excess biotin and washed with blocking buffer (SeaBlock (Pierce), 1% BSA, 0.05% Tween 20, 1 mM DTT) to remove unbound ligand and to reduce nonspecific binding.\nThe binding reaction was assembled by combining 16 μl of DNA-tagged kinase extract, 3.8 μl liganded affinity beads, and 0.18 μl test compound (PBS/0.05% Tween 20/10 mM DTT/0.1% BSA/2 μg/ml sonicated salmon sperm DNA)]. Extracts were used directly in binding assays without any enzyme purification steps at a ≥10,000-fold overall stock dilution (final DNA-tagged enzyme concentration <0.1 nM). Extracts were loaded with DNA-tag and diluted into the binding reaction in a two step process. First extracts were diluted 1:100 in 1× binding buffer (PBS/0.05% Tween 20/10 mM DTT/0.1% BSA/2 μg/ml sonicated salmon sperm DNA) containing 10 nM DNA-tag. This dilution was allowed to equilibrate at room temperature for 15 minutes and then subsequently diluted 1:100 in 1× binding buffer. Test compounds were prepared as 111× stocks in 100% DMSO. Kds were determined using an 11-point 3-fold compound dilution series with three DMSO control points. All compounds for Kd measurements are distributed by acoustic transfer (non-contact dispensing) in 100% DMSO. The compounds were then diluted directly into the assays such that the final concentration of DMSO was 0.9%. All reactions performed in polypropylene 384-well plates. Each was a final volume of 0.02 mL. Assays were incubated with shaking for 1 hour at room temperature. Then the beads were pelleted and washed with wash buffer (1×PBS, 0.05% Tween 20) to remove displaced kinase and test compound. The washed based were re-suspended in elution buffer (1×PBS, 0.05% Tween 20, 0.5 μM non-biotinylated affinity ligand) and incubated at room temperature with shaking for 30 minutes. The kinase concentration in the eluates was measured by qPCR. qPCR reactions were assembled by adding 2.5 μL of kinase eluate to 7.5 μL of qPCR master mix containing 0.15 μM amplicon primers and 0.15 μM amplicon probe. The qPCR protocol consisted of a 10 minute hot start at 95° C., followed by 35 cycles of 95° C. for 15 seconds, 60° C. for 1 minute.\nTest compounds were prepared as 111× stocks in 100% DMSO. Kds were determined using an 11-point 3-fold compound dilution series with three DMSO control points. All compounds for Kd measurements are distributed by acoustic transfer (non-contact dispensing) in 100% DMSO. The compounds were then diluted directly into the assays such that the final concentration of DMSO was 0.9%. The Kds were determined using a compound top concentration of 30,000 nM. Kd measurements were performed in duplicate.\nBinding constants (Kds) were calculated with a standard dose-response curve using the Hill equation: […]\nThe Hill Slope was set to −1. […]", "units": {"Kd": "nM"}, "values": [
      {"compound": "COc1c(Nc2cc(NC(=O)C3CC3)nc3[nH]c(C(F)F)nc23)cccc1-c1nnn(C)n1", "note": "[I-14, N-(2-(difluoromethyl)-7-((2-methoxy-3-(2-methyl-2H-tetrazol-5-yl)phenyl)amino)-3H-imidazo[4,5-b]pyridin-5-yl)cyclopropanecarboxamide]", "Kd": "0.1 to 0.5"},
      {"compound": "COc1cc(C(=O)N2CCOCC2)ccc1Nc1cc(NC(=O)C2CC2)nc2[nH]c(C(F)F)nc12", "note": "[I-15, N-(2-(difluoromethyl)-7-((2-methoxy-4-(morpholine-4-carbonyl)phenyl)amino)-3H-imidazo[4,5-b]pyridin-5-yl)cyclopropanecarboxamide]", "Kd": "1 to 10"},
      {"compound": "COc1cc(C(=O)N2CCC2)ccc1Nc1cc(NC(=O)C2CC2)nc2[nH]c(C(F)F)nc12", "note": "[I-16, N-(7-((4-(azetidine-1-carbonyl)-2-methoxyphenyl)amino)-2-(difluoromethyl)-3H-imidazo[4,5-b]pyridin-5-yl)cyclopropanecarboxamide]", "Kd": "0.5 to 1"},
      {"compound": "COc1c(Nc2cc(Nc3cccc(C#N)n3)nc3[nH]c(C(F)F)nc23)cccc1-c1nnn(C)n1", "note": "[I-17, 6-((2-(difluoromethyl)-7-((2-methoxy-3-(2-methyl-2H-tetrazol-5-yl)phenyl)amino)-3H-imidazo[4,5-b]pyridin-5-yl)amino)picolinonitrile]", "Kd": "0.1 to 0.5"},
      {"compound": "COc1cc(N2CCCC2=O)ccc1Nc1cc(NC(=O)C2CC2)nc2[nH]c(C(F)F)nc12", "note": "[I-18]", "Kd": "1 to 10"},
      {"compound": "COc1c(Cl)cccc1Nc1cc(NC(=O)C2CC2)nc2[nH]c(C(F)F)nc12", "note": "[I-19, N-(7-((3-chloro-2-methoxyphenyl)amino)-2-(difluoromethyl)-3H-imidazo[4,5-b]pyridin-5-yl)cyclopropanecarboxamide]", "Kd": "> 10"},
      {"compound": "COc1c(F)cccc1Nc1cc(NC(=O)C2CC2)nc2[nH]c(C(F)F)nc12", "note": "[I-20, N-(2-(difluoromethyl)-7-((3-fluoro-2-methoxyphenyl)amino)-3H-imidazo[4,5-b]pyridin-5-yl)cyclopropanecarboxamide]", "Kd": "> 10"},
      {"compound": "COc1c(Nc2cc(Nc3cnc(C)c(C)n3)nc3[nH]c(C(F)F)nc23)cccc1-c1nnn(C)n1", "note": "[I-21, 2-(difluoromethyl)-N5-(5,6-dimethylpyrazin-2-yl)-N7-(2-methoxy-3-(2-methyl-2H-tetrazol-5-yl)phenyl)-3H-imidazo[4,5-b]pyridine-5,7-diamine]", "Kd": "0.5 to 1"},
      {"compound": "COc1c(Nc2cc(Nc3ccc(N4CCC4)cn3)nc3[nH]c(C(F)F)nc23)cccc1-c1nnn(C)n1", "note": "[I-22, N5-(5-(azetidin-1-yl)pyridin-2-yl)-2-(difluoromethyl)-N7-(2-methoxy-3-(2-methyl-2H-tetrazol-5-yl)phenyl)-3H-imidazo[4,5-b]pyridine-5,7-diamine]", "Kd": "1 to 10"},
      {"compound": "COc1c(Nc2cc(Nc3ccc(N4CC(O)C4)cn3)nc3[nH]c(C(F)F)nc23)cccc1-c1nnn(C)n1", "note": "[I-23, I-(6-((2-(difluoromethyl)-7-((2-methoxy-3-(2-methyl-2H-tetrazol-5-yl)phenyl)amino)-3H-imidazo[4,5-b]pyridin-5-yl)amino)pyridin-3-yl)azetidin-3-ol]", "Kd": "1 to 10"},
      {"compound": "COc1c(Nc2cc(Nc3cccc(C#N)n3)nc3[nH]c(C(F)F)nc23)cccc1-c1ccn(C)n1", "note": "[I-25, 6-((2-(difluoromethyl)-7-((2-methoxy-3-(1-methyl-1H-pyrazol-3-yl)phenyl)amino)-3H-imidazo[4,5-b]pyridin-5-yl)amino)picolinonitrile]", "Kd": "0.1 to 0.5"},
      {"compound": "COc1c(Nc2cc(Nc3ccc(C)nn3)nc3[nH]c(C(F)F)nc23)cccc1-c1ccn(C)n1", "note": "[I-26, 2-(difluoromethyl)-N7-(2-methoxy-3-(1-methyl-1H-pyrazol-3-yl)phenyl)-N5-(6-methylpyridazin-3-yl)-3H-imidazo[4,5-b]pyridine-5,7-diamine]", "Kd": "0.1 to 0.5"},
      {"compound": "COc1c(Nc2cc(Nc3cncc(C#N)n3)nc3[nH]c(C(F)F)nc23)cccc1-c1ccn(C)n1", "note": "[I-27, 6-((2-(difluoromethyl)-7-((2-methoxy-3-(1-methyl-1H-pyrazol-3-yl)phenyl)amino)-3H-imidazo[4,5-b]pyridin-5-yl)amino)pyrazine-2-carbonitrile]", "Kd": "1 to 10"},
      {"compound": "COc1ccccc1Nc1cc(NC(=O)C2CC2)nc2[nH]c(C(F)F)nc12", "note": "[I-28, N-(2-(difluoromethyl)-7-((2-methoxyphenyl)amino)-3H-imidazo[4,5-b]pyridin-5-yl)cyclopropanecarboxamide]", "Kd": "> 10"},
      {"compound": "COc1c(C#N)cccc1Nc1cc(NC(=O)C2CC2)nc2[nH]c(C(F)F)nc12", "note": "[I-29, N-(7-((3-cyano-2-methoxyphenyl)amino)-2-(difluoromethyl)-3H-imidazo[4,5-b]pyridin-5-yl)cyclopropanecarboxamide]", "Kd": "> 10"},
      {"compound": "COc1c(Nc2cc(Nc3cncc(C#N)n3)nc3[nH]c(C(F)F)nc23)cccc1-c1nnn(C)n1", "note": "[I-30, 6-((2-(difluoromethyl)-7-((2-methoxy-3-(2-methyl-2H-tetrazol-5-yl)phenyl)amino)-3H-imidazo[4,5-b]pyridin-5-yl)amino)pyrazine-2-carbonitrile]", "Kd": "1 to 10"},
      {"compound": "COc1c(Nc2cc(Nc3ccc(N4CCC4)cn3)nc3[nH]c(C(F)F)nc23)cccc1-c1ccn(C)n1", "note": "[I-31, N5-(5-(azetidin-1-yl)pyridin-2-yl)-2-(difluoromethyl)-N7-(2-methoxy-3-(1-methyl-1H-pyrazol-3-yl)phenyl)-3H-imidazo[4,5-b]pyridine-5,7-diamine]", "Kd": "1 to 10"},
      {"compound": "COc1c(Nc2cc(Nc3cc(C)cc(C#N)n3)nc3[nH]c(C(F)F)nc23)cccc1-c1nnn(C)n1", "note": "[I-32, 6-((2-(difluoromethyl)-7-((2-methoxy-3-(2-methyl-2H-tetrazol-5-yl)phenyl)amino)-3H-imidazo[4,5-b]pyridin-5-yl)amino)-4-methylpicolinonitrile]", "Kd": "0.5 to 1"},
      {"compound": "COc1c(Nc2cc(Nc3cc(C)cc(C#N)n3)nc3[nH]c(C(F)F)nc23)cccc1-c1ccn(C)n1", "note": "[I-33, 6-((2-(difluoromethyl)-7-((2-methoxy-3-(1-methyl-1H-pyrazol-3-yl)phenyl)amino)-3H-imidazo[4,5-b]pyridin-5-yl)amino)-4-methylpicolinonitrile]", "Kd": "0.5 to 1"},
      {"compound": "COc1c(Nc2cc(NC(=O)C3CC3)nc3[nH]c(C(F)F)nc23)cccc1-c1cnn(C)c1", "note": "[I-34, N-(2-(difluoromethyl)-7-((2-methoxy-3-(1-methyl-1H-pyrazol-4-yl)phenyl)amino)-3H-imidazo[4,5-b]pyridin-5-yl)cyclopropanecarboxamide]", "Kd": "> 10"},
      {"compound": "COc1cc(C(=O)N2CCCC2)ccc1Nc1cc(NC(=O)C2CC2)nc2[nH]c(C(F)F)nc12", "note": "[I-35, N-(2-(difluoromethyl)-7-((2-methoxy-4-(pyrrolidine-1-carbonyl)phenyl)amino)-3H-imidazo[4,5-b]pyridin-5-yl)cyclopropanecarboxamide]", "Kd": "1 to 10"},
      {"compound": "COc1c(Nc2cc(Nc3ccc(C(=O)N4CCCC4)c(C(F)(F)F)n3)nc3[nH]c(C(F)F)nc23)cccc1-c1nnn(C)n1", "note": "[I-36, (6-((2-(difluoromethyl)-7-((2-methoxy-3-(2-methyl-2H-tetrazol-5-yl)phenyl)amino)-3H-imidazo[4,5-b]pyridin-5-yl)amino)-2-(trifluoromethyl)pyridin-3-yl)(pyrrolidin-1-yl)methanone]", "Kd": "0.1 to 0.5"},
      {"compound": "COc1c(Nc2cc(Nc3ccc(N4CCCC4=O)c(C#N)n3)nc3[nH]c(C(F)F)nc23)cccc1-c1nnn(C)n1", "note": "[I-37, 6-((2-(difluoromethyl)-7-((2-methoxy-3-(2-methyl-2H-tetrazol-5-yl)phenyl)amino)-3H-imidazo[4,5-b]pyridin-5-yl)amino)-3-(2-oxopyrrolidin-1-yl)picolinonitrile]", "Kd": "0.1 to 0.5"}
    ]}
  ]
}
